Laboratory results taken from US20200222474A1, “COMPOSITIONS AND METHODS FOR INCREASING PHYTOCHEMICAL BIOAVAILABLITY AND BIOACTIVITY” (North Carolina State University, priority 2017, published 2020).

What was measured:
L. acidophilus NCFM [1] = assay: Growth of L. acidophilus NCFM on plant glycosides as single carbon source (OD600); format: cell-based, Lactobacillus acidophilus; conditions: for OD600 max: single carbon source, 200 μl cultures, 96 microtitre plates, corrected for medium without carbon source
Procedure: (§1) For initial growth and gene expression studies, L. acidophilus NCFM was propagated three times in semi-defined medium (SDM) supplemented with either 1% or 0,5% (w/v) of the plant glycoside or carbohydrate (Table 1). For the RNA-seq analysis, cells were harvested by centrifugation (3,220×10 min, 25° C.) in the mid-exponential phase (OD600=0.6-0.8) and stored at −80° C. for subsequent RNA isolation. For the mass spectrometry metabolite analyses, 200 μt samples were taken at 0, 3, 6, 9, 12, and 24 hours of growth; cells were removed by centrifugation; and supernatants were stored at −80° C. for further analysis.
(§2) Phenotypic growth assays were performed using 1% (v/v) overnight cultures of L. acidophilus strains (Table 2) and other Lactobacillus species (Table 3) grown on SDM supplemented with 1% (w/v) glucose to inoculate 200 μL of SDM supplemented with 1% (w/v) of the examined carbohydrate (0.5% in the case of esculin) in 96-well microplate wells (Corning Costar, Corning, N.Y., USA) in duplicate or triplicate wells, respectively. The microplates were sealed with clear adhesive film, incubated at 37° C. in a Fluostar Optima microplate reader (BMG Labtech, Cary, N.C., USA), and the cell optical density (OD600) was monitored for 30 hours.
The growth of L. acidophilus NCFM was evaluated on twelve chemically diverse, nutritionally relevant and/or therapeutically active PGs 1; Table 1). FIG. 1A provides the structures and common sources of plant glycoside substrates described herein. The compounds that support growth of Lactobacillus acidophilus are in green. RI: β-D-Glcp; R2: Gentiobioside (β-D-Glcp-(1,6)-D-Glcp); R3: Rutinoside (α-L-Rhaf-(1,6)-D-Glcp). The graph in FIG. 1B depicts plant glycoside utilization analyzed by mass spectrometry and the growth as the maximum OD600. Due to the low solubility of polydatin, OD600 cannot be used as a growth metric and utilization of this compound is confirmed by the production of lactate as well as a high utilization level based on the metabolite analysis.

L. acidophilus NCFM [2] = assay: Plant glycoside uptake and metabolite analysis of L. acidophilus NCFM culture supernatants by UHPLC-DAD-Q-TOF-MS; format: cell-based, Lactobacillus acidophilus; conditions: qualitative: depletion of the plant glycoside and/or appearance of its metabolites
Procedure: as §1
Analysis of plant glycoside uptake from L. acidophilus NCFM culture supernatants using mass spectrometry. The supernatants of L. acidophilus NCFM cultures grown on amygdalin, arbutin, esculin or salicin as carbon sources were analyzed during 24 hours by ultra-high performance liquid chromatography-diode array detection-quadruple time of flight mass spectrometry (UHPLC-DAD-Q-TOF-MS). Samples were diluted 1:20 (v/v) with methanol and an injection volume of […] was used. Separation was carried out on an Agilent Poroshell 120 phenyl-hexyl column (2.1×150 mm, 2.7 μm) using the Agilent Infinity 1290 UHPLC system (Agilent Technologies, Santa Clara, Calif., USA) equipped with a UV/vis spectrum diode array detector. Separation was performed at 0.35 mL min-1., 60° C. with a linear gradient consisting of water (A) and acetonitrile (B) both buffered with 20 mM formic acid, starting at 10% B and increased to 100% in 15 min where it was held for 2 min, returned to 10% in 0.1 min and kept for 3 min. MS detection was performed on an Agilent 6550 iFunnel QTOF MS equipped with Agilent Dual Jet Stream electrospray ion source with the drying gas temperature of 160° C. and gas flow of 13 L min^−1, whereas the sheath gas temperature was 300° C. and flow was 16 L min-1. Ionization was conducted in ESI-mode with capillary voltage set to 4000 V and nozzle voltage to 500 V. Mass spectra were recorded as centroid data for m/z 85-1700 in MS mode with an acquisition rate of 10 spectra s^−1. To avoid carry-over, the needle seat was back-flushed for 15 s at 4 mL min-1 with each of: i) isopropanol: 0.2% ammonium hydroxide (w/v) in water (1:1 v/v); ii) acetonitrile with 2% formic acid (w/v); iii) water with 2% formic acid. Data was processed with the Agilent Mass Hunter Qualitative Analysis B.07.00 software package (Agilent Technologies) and molar concentrations were obtained from standard curves of the plant glycosides and their main metabolites. Targeted compound searches were performed using lists of previously identified compounds plus standard chemical modifications.

L. fermentum ATCC 14931 = assay: Phenotypic growth assay (OD600); format: cell-based; conditions: SDM + 1% (w/v) carbohydrate (0.5% esculin), 37° C., 30 hours; corrected to medium without carbohydrate
Procedure: as §2

[3] = system: L. amyloverus ATCC 33620, DSM 20531; assay: Phenotypic growth assay (OD600); format: cell-based; conditions: SDM + 1% (w/v) carbohydrate (0.5% esculin), 37° C., 30 hours; corrected to medium without carbohydrate
Procedure: as §2

[4] = system: L. intestinalis Th4, ATCC 49335, DSM 6629; assay: Phenotypic growth assay (OD600); format: cell-based; conditions: SDM + 1% (w/v) carbohydrate (0.5% esculin), 37° C., 30 hours; corrected to medium without carbohydrate
Procedure: as §2

[5] = system: L. reuteri (ATCC 23272, DSM 20016); assay: Phenotypic growth assay (OD600); format: cell-based; conditions: SDM + 1% (w/v) carbohydrate (0.5% esculin), 37° C., 30 hours; corrected to medium without carbohydrate
Procedure: as §2

[6] = system: L. jensenii ATCC 25258, 62G, DSM 20557; assay: Phenotypic growth assay (OD600); format: cell-based; conditions: SDM + 1% (w/v) carbohydrate (0.5% esculin), 37° C., 30 hours; corrected to medium without carbohydrate
Procedure: as §2

[7] = system: L. rhanmosus GG (ATCC 53103); assay: Phenotypic growth assay (OD600); format: cell-based; conditions: SDM + 1% (w/v) carbohydrate (0.5% esculin), 37° C., 30 hours; corrected to medium without carbohydrate
Procedure: as §2

L. animalis DSM 20602 = assay: Phenotypic growth assay (OD600); format: cell-based; conditions: SDM + 1% (w/v) carbohydrate (0.5% esculin), 37° C., 30 hours; corrected to medium without carbohydrate
Procedure: as §2

L. gasseri ATCC 33323 = assay: Phenotypic growth assay (OD600); format: cell-based; conditions: SDM + 1% (w/v) carbohydrate (0.5% esculin), 37° C., 30 hours; corrected to medium without carbohydrate
Procedure: as §2

[8] = system: L. crispatus ATCC 33820, DSM 20584; assay: Phenotypic growth assay (OD600); format: cell-based; conditions: SDM + 1% (w/v) carbohydrate (0.5% esculin), 37° C., 30 hours; corrected to medium without carbohydrate
Procedure: as §2

L. helveticus CNRZ32 = assay: Phenotypic growth assay (OD600); format: cell-based; conditions: SDM + 1% (w/v) carbohydrate (0.5% esculin), 37° C., 30 hours; corrected to medium without carbohydrate
Procedure: as §2

L. johnsonii ATCC 33200 = assay: Phenotypic growth assay (OD600); format: cell-based; conditions: SDM + 1% (w/v) carbohydrate (0.5% esculin), 37° C., 30 hours; corrected to medium without carbohydrate
Procedure: as §2

L. acidophilus LA-1 = assay: Phenotypic growth assay (OD600); format: cell-based; conditions: SDM + 1% (w/v) carbohydrate (0.5% esculin), 37° C., 30 hours; corrected to medium without carbohydrate
Procedure: as §2

[9] = system: L. plantarum sp. plantarum ATCC 14917, LA70; assay: Phenotypic growth assay (OD600); format: cell-based; conditions: SDM + 1% (w/v) carbohydrate (0.5% esculin), 37° C., 30 hours; corrected to medium without carbohydrate
Procedure: as §2

[10] = growth concentration 0.5% (w/v)

Work on `C[C@@H]1O[C@@H](OC[C@H]2O[C@@H](Oc3c(-c4ccc(O)c(O)c4)oc4cc(O)cc(O)c4c3=O)[C@H](O)[C@@H](O)[C@@H]2O)[C@H](O)[C@H](O)[C@H]1O` [Rutin hydrate] yielded an OD600 max (L. acidophilus NCFM [1]; [10]) of 0.1.
With `COc1cc2ccc(=O)oc2c(O[C@@H]2O[C@H](CO)[C@@H](O)[C@H](O)[C@H]2O)c1O` [Fraxin] the “Catabolism based on MS” value (L. acidophilus NCFM [2]; [10]) was “Yes” and the OD600 max (L. acidophilus NCFM [1]; [10]) was 0.4.
With `O=c1c(-c2ccc(O)cc2)coc2cc(O[C@@H]3O[C@H](CO)[C@@H](O)[C@H](O)[C@H]3O)ccc12` [Daidzin] the OD600 max (L. acidophilus NCFM [1]; [10]) was 0.0.
In the case of `OCc1ccccc1O` [salicyl alcohol], the “ability of the aglycone per se to support growth” value (L. acidophilus NCFM [1]; data not shown) is reported as “unable to support growth”.
With `OCC1=C[C@@H](O)[C@@H]2C=CO[C@@H](O[C@@H]3O[C@H](CO)[C@@H](O)[C@H](O)[C@H]3O)[C@H]12` [Aucubin] the “Catabolism based on MS” value (L. acidophilus NCFM [2]; [10]) was “No” and the OD600 max (L. acidophilus NCFM [1]; [10]) was 0.0.
`COc1cc(C=O)ccc1O[C@@H]1O[C@H](CO)[C@@H](O)[C@H](O)[C@H]1O` [Vanilin 4-O-β-glucoside] was tested, and the “Catabolism based on MS” value (L. acidophilus NCFM [2]; [10]) was “Yes” and the OD600 max (L. acidophilus NCFM [1]; [10]) was 1.3.
For `C=CCC(=NOS(=O)(=O)O)S[C@@H]1O[C@H](CO)[C@@H](O)[C@H](O)[C@H]1O` (stereo in doubt) [Sinigrin hydrate], the OD600 max (L. acidophilus NCFM [1]; [10]) was 0.0.
`O=c1c(O[C@@H]2O[C@H](CO)[C@@H](O)[C@H](O)[C@H]2O)c(-c2ccc(O)c(O)c2)oc2cc(O)cc(O)c12` [Isoquercetin] gave an OD600 max (L. acidophilus NCFM [1]; [10]) of 0.0.
`OC[C@H]1O[C@@H](Oc2ccc(O)cc2)[C@H](O)[C@@H](O)[C@@H]1O` [Arbutin] was tested, and the “Catabolism based on MS” value (L. acidophilus NCFM [2]; growth concentration 1% (w/v)) was “No”, the “Growth (OD600 max class) of L. fermentum ATCC 14931” value (L. fermentum ATCC 14931) was “− (“−” signifies OD600 max < 0.1.)” and the “Growth (OD600 max class) of L. amyloverus ATCC 33620, DSM 20531” value [3] was “− (“−” signifies OD600 max < 0.1.)”. The “Growth (OD600 max class) of L. intestinalis Th4, ATCC 49335, DSM 6629” value [4] was “− (“−” signifies OD600 max < 0.1.)”, the “Growth (OD600 max class) of L. reuteri (ATCC 23272, DSM 20016)” value [5] was “− (“−” signifies OD600 max < 0.1.)” and the “Growth (OD600 max class) of L. jensenii ATCC 25258, 62G, DSM 20557” value [6] was “+ (“+” signifies 0.3 > OD600 max > 0.1.)”. For the same molecule, the “Growth (OD600 max class) of L. rhanmosus GG (ATCC 53103)” value [7] was “+++ (“+++” signifies OD600 max > 0.6.)”, the “Growth (OD600 max class) of L. animalis DSM 20602” value (L. animalis DSM 20602) was “+ (“+” signifies 0.3 > OD600 max > 0.1.)” and the “Growth (OD600 max class) of L. gasseri ATCC 33323” value (L. gasseri ATCC 33323) was “− (“−” signifies OD600 max < 0.1.)”. For the same molecule, the “Growth (OD600 max class) of L. crispatus ATCC 33820, DSM 20584” value [8] was “− (“−” signifies OD600 max < 0.1.)”, the “Growth (OD600 max class) of L. helveticus CNRZ32” value (L. helveticus CNRZ32) was “− (“−” signifies OD600 max < 0.1.)” and the “Growth (OD600 max class) of L. johnsonii ATCC 33200” value (L. johnsonii ATCC 33200) was “+ (“+” signifies 0.3 > OD600 max > 0.1.)”. The “Growth (OD600 max class) of L. acidophilus LA-1” value (L. acidophilus LA-1) was “− (“−” signifies OD600 max < 0.1.)”, the “Growth (OD600 max class) of L. plantarum sp. plantarum ATCC 14917, LA70” value [9] was “+++ (“+++” signifies OD600 max > 0.6.)” and the “Growth (OD600 max class) of L. acidophilus NCFM” value (L. acidophilus NCFM [1]; SDM + 1% (w/v) carbohydrate (0.5% esculin), 37° C., 30 hours, corrected to medium without carbohydrate) was “− (“−” signifies OD600 max < 0.1.)”. The OD600 max (L. acidophilus NCFM [1]; growth concentration 1% (w/v)) was 0.0.
